These are literature values, as cited in patent US20100255088A1 (priority 2009, published 2010).

Read-outs that look alike come from different tables or passages of the source.

In series [1] the test system is isolated pig retinal artery. Conditions: through the NO system and prostacycline secretion.
In a further series the test system is platelet aggregation. Conditions: aspirin resistance group of patients.
Series [2] relates to yeast and primitives animals. Conditions: high resveratrol levels artificially maintained.
The target in a further series is H+/K+ ATPase (Homo sapiens, UniProt P20648). Conditions: Life Sciences 66(8), 2000, 663-673.
Sequence of H+/K+ ATPase (P20648 whole entry): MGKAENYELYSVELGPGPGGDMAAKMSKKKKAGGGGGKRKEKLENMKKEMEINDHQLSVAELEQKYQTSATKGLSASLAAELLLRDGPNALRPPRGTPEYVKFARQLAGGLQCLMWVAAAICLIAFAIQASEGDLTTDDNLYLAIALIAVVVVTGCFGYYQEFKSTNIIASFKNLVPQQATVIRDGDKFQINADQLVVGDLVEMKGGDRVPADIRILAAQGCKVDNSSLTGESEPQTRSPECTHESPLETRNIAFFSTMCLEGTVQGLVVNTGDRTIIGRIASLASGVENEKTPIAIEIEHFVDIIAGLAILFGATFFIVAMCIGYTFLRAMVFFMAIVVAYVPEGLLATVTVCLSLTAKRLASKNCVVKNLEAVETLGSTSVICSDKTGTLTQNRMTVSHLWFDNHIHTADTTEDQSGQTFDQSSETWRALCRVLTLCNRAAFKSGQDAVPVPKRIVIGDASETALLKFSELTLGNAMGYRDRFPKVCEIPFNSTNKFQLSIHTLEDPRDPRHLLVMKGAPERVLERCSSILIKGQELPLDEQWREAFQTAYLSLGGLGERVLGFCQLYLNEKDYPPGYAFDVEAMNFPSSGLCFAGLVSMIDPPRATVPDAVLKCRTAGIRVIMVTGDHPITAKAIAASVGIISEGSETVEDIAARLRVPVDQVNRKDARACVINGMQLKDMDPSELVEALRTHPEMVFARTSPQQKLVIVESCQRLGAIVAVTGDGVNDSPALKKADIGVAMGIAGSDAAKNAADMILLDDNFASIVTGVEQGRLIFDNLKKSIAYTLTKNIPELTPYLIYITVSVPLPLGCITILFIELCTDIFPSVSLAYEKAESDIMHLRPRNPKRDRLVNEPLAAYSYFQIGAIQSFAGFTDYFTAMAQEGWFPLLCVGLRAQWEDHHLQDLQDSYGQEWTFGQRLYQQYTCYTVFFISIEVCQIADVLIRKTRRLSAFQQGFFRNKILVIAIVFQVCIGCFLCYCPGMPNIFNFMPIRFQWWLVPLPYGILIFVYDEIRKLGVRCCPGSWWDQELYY
Sequence of H+/K+ ATPase (P51164 whole entry partner): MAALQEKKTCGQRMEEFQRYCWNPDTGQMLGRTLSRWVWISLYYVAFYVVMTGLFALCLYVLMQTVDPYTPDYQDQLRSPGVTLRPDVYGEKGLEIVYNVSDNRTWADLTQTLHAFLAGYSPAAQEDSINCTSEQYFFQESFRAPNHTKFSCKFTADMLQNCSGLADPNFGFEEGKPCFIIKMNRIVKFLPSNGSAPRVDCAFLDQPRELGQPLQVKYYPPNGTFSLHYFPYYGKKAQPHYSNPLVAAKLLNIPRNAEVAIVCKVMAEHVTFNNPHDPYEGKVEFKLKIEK
Test in series [3]: not given
The source holds these as a separate data set.

`Oc1ccc(C=Cc2cc(O)cc(O)c2)cc1` [resveratrol]: in series [1], the vasodilating effect entry is “strong vasodilating effect”. The platelet aggregation inhibition entry in the series with platelet aggregation is “optimal platelet aggregation inhibition”. For the same molecule, the life span result in series [2] is listed as “doubling the life span”. The hydrochloric acid production result on H+/K+ ATPase is “reducing significantly the hydrochloric acid production”.

As for `CC(=O)Oc1ccccc1C(=O)O` [aspirin, acetyl salicylic acid], the “patients with reduced mortality” value is reported as 50% (at least 325 mg daily for ten years) and 75% (higher doses for ten years). For the same molecule, the “incidence of various human carcinomas” value (full dose aspirin for ten years and above) is on record as “halved”. The water solubility entry in series [3] was “not water-soluble”.
